Columns and labels:
Format in all cases: cell-based
P2X2 R302 lysine (R302K) = target: T1, P2X2 R302 lysine (R302K) (Homo sapiens, UniProt Q9UBL9, R302K); experiment: Site-saturation screen of ligand-binding domain with ATP, R302 lysine; conditions: 500 μM ATP, ± sd
T1 construct: expressed in transfected cells; host or cells: S. cerevisiae BY4741 background
From the text: (§1) The yeast P2X2 screening platform poses an opportunity to probe the structure-function of the ligand-binding domain in detail. The conserved P2X “NFR” motif at residues 300 to 302 is directly involved in bonding to the ATP triphosphate moiety ([41]), so we mutagenized residues at or near this motif (298–304), ultimately covering 133 variants (7 sites, 19 residues each). […] We compared our results to phylogenetic data based on a multiple sequence alignment (MSA) from a curated set of 419 related P2X homologs (Figs. 3B, and S5; Table S1).
(§2) Figure 3 Structure-function analysis of the ligand binding domain.A, heat map summarizing the screening data of ATP with seven site-saturation libraries surrounding the NFR-motif. B, sequence-logo plot of the mutagenized residues and percent identity scores as determined from MSA. C, homology model of P2X2 colored by sequence conservation as calculated from a multiple sequence alignment of 419 related P2X genes. Conservation is scored on a log scale where maroon is more conserved and blue is less conserved. D, ATP in the ligand-binding pocket of P2X2. […]
(§3) GCaMP assays were performed as follows. […] Cells were loaded onto a black, clear bottom microplate and imaged on a FlexStation3 plate reader. […] Fluorescence was measured with an excitation at 485 nm, and emission 525 nm. […] For strains with mScarlet, fluorescence was read with excitation 570 nm/emission 610 nm. […]

P2X2 G353R = target: T2, P2X2 G353R (Homo sapiens, UniProt Q9UBL9, G353R); experiment: Site-saturation screen, fast kinetic assay in yeast, G353R; conditions: 500 μM ATP, ΔF/ΔT normalized to WT
T2 construct: expressed in transfected cells; host or cells: S. cerevisiae BY4741 background
Description: (§4) Figure 2 P2X2 SNP testing.A, homology model of P2X2 with the clinically implicated SNPs highlighted. V60 is highlighted in magenta and G353 is highlighted in dark blue. Lines indicate the positions of the mutations on each of the three monomers. B, zoomed view of the transmembrane region from the purple box in (A). V60 is magenta and G353 is dark blue. The structure is rotated 60° on the right image. C, screening data from site-saturation of the V60 residue in saturating ATP concentration (500 μM f.c.) using the fast kinetic assay. Signal onset values (ΔF/ΔT) are normalized to values from the WT receptor. […] Each of 2 to 3 replicates is represented as a single point. […]
(§5) GCaMP assays were performed as follows. […] Cells were loaded onto a black, clear bottom microplate and imaged on a FlexStation3 plate reader. […] Fluorescence was measured with an excitation at 485 nm, and emission 525 nm. […] For strains with mScarlet, fluorescence was read with excitation 570 nm/emission 610 nm. Slopes were calculated from the last 6 points of measurement and were normalized to the positive control samples. Any replicate in which the mScarlet value was measured to be over 2 standard deviations less than the mean for that set was discarded from further analysis.

P2X2 A304H = target: T3, P2X2 A304H (Homo sapiens, UniProt Q9UBL9, A304H); experiment: Site-saturation screen of ligand-binding domain with ATP, A304H; conditions: 500 μM ATP, ± sd
T3 construct: expressed in transfected cells; host or cells: Saccharomyces cerevisiae BY4741 derivative, genome-integrated, galactose-inducible
From the text: as §1, §2, §3

P2X2 Y299F = target: T4, P2X2 Y299F (Homo sapiens, UniProt Q9UBL9, Y299F); experiment: Site-saturation screen of ligand-binding domain with ATP, Y299F; conditions: 500 μM ATP, ± sd
T4 construct: expressed in transfected cells; host or cells: S. cerevisiae BY4741 background
From the text: as §1, §2, §3

P2X2 F303M = target: T5, P2X2 F303M (Homo sapiens, UniProt Q9UBL9, F303M); experiment: Site-saturation screen of ligand-binding domain with ATP, F303M; conditions: 500 μM ATP, ± sd
T5 construct: expressed in transfected cells; host or cells: Saccharomyces cerevisiae BY4741 derivative, genome-integrated, galactose-inducible
From the text: as §1, §2, §3

[1] = target: T6, P2X2 G353 threonine substitution (G353T) (Homo sapiens, UniProt Q9UBL9, G353T); experiment: Site-saturation screen, fast kinetic assay in yeast, G353 threonine; conditions: 500 μM ATP, ΔF/ΔT normalized to WT
T6 construct: expressed in transfected cells; host or cells: S. cerevisiae BY4741 background
Description: as §4, §5

[2] = target: T7, P2X2 G353 serine substitution (G353S) (Homo sapiens, UniProt Q9UBL9, G353S); experiment: Site-saturation screen, fast kinetic assay in yeast, G353 serine; conditions: 500 μM ATP, ΔF/ΔT normalized to WT
T7 construct: expressed in transfected cells; host or cells: S. cerevisiae BY4741 background
Description: as §4, §5

P2X2 F303Y = target: T8, P2X2 F303Y (Homo sapiens, UniProt Q9UBL9, F303Y); experiment: Fast GCaMP-mScarletI assay in yeast, P2X2 F303Y; conditions: site-saturation screen, 500 μM ATP, ± sd
T8 construct: expressed in transfected cells; host or cells: S. cerevisiae BY4741 background
T8 sequence (Q9UBL9 1-471 F303Y): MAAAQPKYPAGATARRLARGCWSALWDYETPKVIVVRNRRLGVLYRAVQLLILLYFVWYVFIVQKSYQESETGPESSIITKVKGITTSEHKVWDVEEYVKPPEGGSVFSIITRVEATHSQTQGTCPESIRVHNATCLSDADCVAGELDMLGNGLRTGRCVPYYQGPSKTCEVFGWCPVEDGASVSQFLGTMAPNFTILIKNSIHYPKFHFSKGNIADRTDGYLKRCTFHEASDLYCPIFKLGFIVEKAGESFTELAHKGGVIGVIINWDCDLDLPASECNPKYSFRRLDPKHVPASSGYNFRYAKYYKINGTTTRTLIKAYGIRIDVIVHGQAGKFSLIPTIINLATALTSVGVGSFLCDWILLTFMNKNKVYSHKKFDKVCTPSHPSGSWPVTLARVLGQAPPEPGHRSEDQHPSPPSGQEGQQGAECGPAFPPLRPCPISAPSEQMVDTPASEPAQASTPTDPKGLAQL

T7 sequence (Q9UBL9 whole entry G353S): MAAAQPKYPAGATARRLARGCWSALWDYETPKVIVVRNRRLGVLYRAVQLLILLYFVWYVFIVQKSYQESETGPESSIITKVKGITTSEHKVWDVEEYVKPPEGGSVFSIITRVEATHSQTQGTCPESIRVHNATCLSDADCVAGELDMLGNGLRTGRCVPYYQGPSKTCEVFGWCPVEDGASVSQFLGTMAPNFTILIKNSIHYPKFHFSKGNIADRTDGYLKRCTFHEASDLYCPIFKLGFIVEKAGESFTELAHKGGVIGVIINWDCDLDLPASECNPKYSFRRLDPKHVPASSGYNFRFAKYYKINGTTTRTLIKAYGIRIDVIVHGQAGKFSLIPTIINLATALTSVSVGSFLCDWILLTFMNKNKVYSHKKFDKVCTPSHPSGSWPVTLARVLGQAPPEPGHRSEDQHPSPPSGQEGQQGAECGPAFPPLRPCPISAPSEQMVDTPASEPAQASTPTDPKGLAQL
T1 sequence (Q9UBL9 whole entry R302K, the tested form may be a part): as the sequence (Q9UBL9 whole entry G353S) above, with R302K, S353G counted along it
T3 sequence (Q9UBL9 whole entry A304H, the tested form may be a part): as the sequence (Q9UBL9 whole entry G353S) above, with A304H, S353G counted along it
T6 sequence (Q9UBL9 whole entry G353T): as the sequence (Q9UBL9 whole entry G353S) above, with S353T counted along it
T4 sequence (Q9UBL9 whole entry Y299F, the tested form may be a part): as the sequence (Q9UBL9 whole entry G353S) above, with Y299F, S353G counted along it
T2 sequence (Q9UBL9 whole entry G353R): as the sequence (Q9UBL9 whole entry G353S) above, with S353R counted along it
T5 sequence (Q9UBL9 whole entry F303M, the tested form may be a part): as the sequence (Q9UBL9 whole entry G353S) above, with F303M, S353G counted along it

Compound: Nc1ncnc2c1ncn2[C@@H]1O[C@H](COP(=O)(O)OP(=O)(O)OP(=O)(O)O)[C@@H](O)[C@H]1O [ATP]
- signal, % of WT signaling (P2X2 R302 lysine (R302K)): 43 ± 15%
- function in the assay (P2X2 G353R): not observed to be functional
- signal, % of WT signaling (P2X2 A304H): 27 ± 18%
- signal relative to WT (P2X2 Y299F): 21 ± 12%
- signal, % of WT signaling (P2X2 F303M): 71 ± 14%
- signaling, % of WT activity [1]: 50%
- signaling, % of WT activity [2]: 95%
- signal, % of WT signaling (P2X2 F303Y): 113 ± 45%

Source: paper PMC11063903, “Engineering a human P2X2 receptor with altered ligand selectivity in yeast” (The Journal of Biological Chemistry, 2024)
